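Following 48 hours of exposure in 96-well plates, responses at five concentrations were used to interpolate endpoints linearly. At the GI50, growth is halved.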 Activity calls are given as the source filed them. No stated cut-off is given here; in the data, active = GI50 up to about 1.1 µM and inactive = higher.
How the values were obtained:
Experiment in all cases: NCI-60 cell line screen, 48 h
[1] = tested on: Malme-3M
[2] = tested on: M14
[3] = tested on: LOX IMVI
[4] = tested on: A549
[5] = tested on: SNB-75
[6] = tested on: NCI-H226
[7] = tested on: PC-3
[8] = tested on: OVCAR-4
[9] = tested on: HCT-15
[10] = tested on: SW-620
[11] = tested on: A498
[12] = tested on: HT-29
[13] = tested on: SR
[14] = tested on: SK-MEL-28
[15] = tested on: SF-295
[16] = tested on: SN12C
[17] = tested on: 786-0
[18] = tested on: RXF 393
[19] = tested on: RPMI-8226
[20] = tested on: UACC-62
[21] = tested on: COLO 205
[22] = tested on: MDA-MB-231
[23] = tested on: HOP-62
[24] = tested on: KM12
[25] = tested on: MOLT-4
[26] = tested on: BT-549
[27] = tested on: OVCAR-8
[28] = tested on: UO-31
[29] = tested on: DU-145
[30] = tested on: UACC-257
[31] = tested on: SF-268
[32] = tested on: TK-10
[33] = tested on: SK-MEL-2
[34] = tested on: NCI-H23
[35] = tested on: CAKI-1
[36] = tested on: K562
[37] = tested on: CCRF-CEM
[38] = tested on: SK-MEL-5
[39] = tested on: ACHN
[40] = tested on: SK-OV-3
[41] = tested on: EKVX
[42] = tested on: MDA-MB-435
[43] = tested on: HOP-92
[44] = tested on: Hs-578T
[45] = tested on: IGROV-1
[46] = tested on: U-251
[47] = tested on: OVCAR-5
[48] = tested on: MDA-N
[49] = tested on: SNB-19
[50] = tested on: OVCAR-3
[51] = tested on: NCI-H522
[52] = tested on: HCT-116
[53] = tested on: T47D
[54] = tested on: NCI/ADR-RES
[55] = tested on: HCC 2998
[56] = tested on: NCI-H460
[57] = tested on: HL-60
[58] = tested on: SF-539

CCOC(=O)C(C)c1nc2c(Cl)c3ncccc3cc2[nH]c1=O (stereo not given)
GI50 [1]: > 100 µM (inactive)
GI50 [2]: 44.8 µM (inactive)
GI50 [3]: > 100 µM (inactive)
GI50 [4]: 53.2 µM (inactive)
GI50 [5]: 62.2 µM (inactive)
GI50 [6]: 53.3 µM (inactive)
GI50 [7]: 40.7 µM (inactive)
GI50 [8]: 57.9 µM (inactive)
GI50 [9]: 57.3 µM
GI50 [10]: 75.2 µM (inactive)
GI50 [11]: > 100 µM (inactive)
GI50 [12]: 30.7 µM (inactive)
GI50 [13]: 12.9 µM (inactive)
GI50 [14]: > 100 µM (inactive)
GI50 [15]: 79.8 µM (inactive)
GI50 [16]: > 100 µM (inactive)
GI50 [17]: > 100 µM (inactive)
GI50 [18]: 62.8 µM (inactive)
GI50 [19]: 22.1 µM (inactive)
GI50 [20]: 43.5 µM (inactive)
GI50 [21]: > 100 µM (inactive)
GI50 [22]: 79.1 µM (inactive)
GI50 [23]: 34.1 µM (inactive)
GI50 [24]: 43.8 µM (inactive)
GI50 [25]: 31.4 µM (inactive)
GI50 [26]: 57 µM (inactive)
GI50 [27]: 36.5 µM (inactive)
GI50 [28]: 23.7 µM (inactive)
GI50 [29]: > 100 µM (inactive)
GI50 [30]: > 100 µM (inactive)
GI50 [31]: 41 µM (inactive)
GI50 [32]: 59.7 µM (inactive)
GI50 [33]: > 100 µM (inactive)
GI50 [34]: 77.1 µM (inactive)
GI50 [35]: 69.5 µM (inactive)
GI50 [36]: 34 µM (inactive)
GI50 [37]: 28.2 µM (inactive)
GI50 [38]: 30.5 µM (inactive)
GI50 [39]: 22.6 µM (inactive)
GI50 [40]: > 100 µM (inactive)
GI50 [41]: 31 µM (inactive)
GI50 [42]: 84.5 µM (inactive)
GI50 [43]: 29.8 µM (inactive)
GI50 [44]: 23.2 µM (inactive)
GI50 [45]: 62.2 µM (inactive)
GI50 [46]: 30.8 µM (inactive)
GI50 [47]: > 100 µM (inactive)
GI50 [48]: > 100 µM (inactive)
GI50 [49]: > 100 µM (inactive)
GI50 [50]: 57.3 µM (inactive)
GI50 [51]: 50.7 µM (inactive)
GI50 [52]: 76.9 µM (inactive)
GI50 [53]: 64.3 µM (inactive)
GI50 [54]: 29.9 µM (inactive)

CCOC(=O)c1sc2nc(SC)nc(N3CCCCC3)c2c1N
GI50 [1]: > 100 µM (inactive)
GI50 [2]: > 100 µM (inactive)
GI50 [3]: > 100 µM (inactive)
GI50 [4]: > 100 µM (inactive)
GI50 [55]: > 100 µM (inactive)
GI50 [5]: > 100 µM (inactive)
GI50 [6]: > 100 µM (inactive)
GI50 [7]: > 100 µM (inactive)
GI50 [8]: > 100 µM (inactive)
GI50 [9]: > 100 µM
GI50 [10]: > 100 µM (inactive)
GI50 [11]: > 100 µM (inactive)
GI50 [12]: > 100 µM (inactive)
GI50 [13]: > 100 µM (inactive)
GI50 [14]: > 100 µM (inactive)
GI50 [15]: > 100 µM (inactive)
GI50 [16]: > 100 µM (inactive)
GI50 [17]: > 100 µM (inactive)
GI50 [18]: > 100 µM (inactive)
GI50 [19]: > 100 µM (inactive)
GI50 [20]: > 100 µM (inactive)
GI50 [21]: > 100 µM (inactive)
GI50 [22]: > 100 µM (inactive)
GI50 [23]: > 100 µM (inactive)
GI50 [24]: > 100 µM (inactive)
GI50 [25]: > 100 µM (inactive)
GI50 [26]: > 100 µM (inactive)
GI50 [27]: > 100 µM (inactive)
GI50 [56]: > 100 µM (inactive)
GI50 [28]: > 100 µM (inactive)
GI50 [29]: > 100 µM (inactive)
GI50 [30]: 5.07 µM (inactive)
GI50 [31]: > 100 µM (inactive)
GI50 [32]: > 100 µM (inactive)
GI50 [33]: > 100 µM (inactive)
GI50 [34]: > 100 µM (inactive)
GI50 [35]: > 100 µM (inactive)
GI50 [36]: > 100 µM (inactive)
GI50 [38]: > 100 µM (inactive)
GI50 [39]: > 100 µM (inactive)
GI50 [40]: > 100 µM (inactive)
GI50 [42]: > 100 µM (inactive)
GI50 [43]: > 100 µM (inactive)
GI50 [44]: > 100 µM (inactive)
GI50 [45]: > 100 µM (inactive)
GI50 [46]: > 100 µM (inactive)
GI50 [47]: > 100 µM (inactive)
GI50 [48]: > 100 µM (inactive)
GI50 [49]: > 100 µM (inactive)
GI50 [50]: > 100 µM (inactive)
GI50 [51]: > 100 µM (inactive)
GI50 [52]: > 100 µM (inactive)
GI50 [53]: > 100 µM (inactive)
GI50 [54]: > 100 µM (inactive)

COC(=O)C1=C(O)CCCC(CCC(C)=O)=C1
GI50 [1]: 41.3 µM (inactive)
GI50 [2]: 47 µM (inactive)
GI50 [3]: 38.2 µM (inactive)
GI50 [4]: 95.3 µM (inactive)
GI50 [55]: > 100 µM (inactive)
GI50 [5]: 76.6 µM (inactive)
GI50 [6]: > 100 µM (inactive)
GI50 [7]: > 100 µM (inactive)
GI50 [8]: 46.9 µM (inactive)
GI50 [9]: 39.3 µM
GI50 [10]: 31.6 µM (inactive)
GI50 [11]: > 100 µM (inactive)
GI50 [57]: 3.99 µM (inactive)
GI50 [12]: 57.4 µM (inactive)
GI50 [13]: 21.8 µM (inactive)
GI50 [14]: > 100 µM (inactive)
GI50 [58]: 22.2 µM (inactive)
GI50 [15]: > 100 µM (inactive)
GI50 [16]: 41 µM (inactive)
GI50 [17]: 26.9 µM (inactive)
GI50 [18]: 33.4 µM (inactive)
GI50 [19]: 29.4 µM (inactive)
GI50 [20]: 46 µM (inactive)
GI50 [21]: 20.5 µM (inactive)
GI50 [22]: 73.8 µM (inactive)
GI50 [24]: 80.2 µM (inactive)
GI50 [25]: 36.5 µM (inactive)
GI50 [26]: > 100 µM (inactive)
GI50 [27]: 56.5 µM (inactive)
GI50 [56]: 30.7 µM (inactive)
GI50 [28]: 39.9 µM (inactive)
GI50 [29]: 41.2 µM (inactive)
GI50 [30]: 98.4 µM (inactive)
GI50 [31]: > 100 µM (inactive)
GI50 [32]: > 100 µM (inactive)
GI50 [33]: > 100 µM (inactive)
GI50 [34]: 94.4 µM (inactive)
GI50 [35]: 47.6 µM (inactive)
GI50 [36]: 31.3 µM (inactive)
GI50 [37]: 9.71 µM (inactive)
GI50 [38]: > 100 µM (inactive)
GI50 [39]: 32.4 µM (inactive)
GI50 [40]: > 100 µM (inactive)
GI50 [41]: 83.2 µM (inactive)
GI50 [42]: 69.5 µM (inactive)
GI50 [43]: 28.9 µM (inactive)
GI50 [44]: > 100 µM (inactive)
GI50 [45]: 41.2 µM (inactive)
GI50 [46]: 43.2 µM (inactive)
GI50 [47]: > 100 µM (inactive)
GI50 [48]: 31.9 µM (inactive)
GI50 [49]: > 100 µM (inactive)
GI50 [50]: 48.8 µM (inactive)
GI50 [51]: 12.5 µM (inactive)
GI50 [52]: 17.5 µM (inactive)
GI50 [53]: 35.6 µM (inactive)
GI50 [54]: > 100 µM (inactive)

CC1C(=O)OCC2=CCN3CCC(OC(=O)C(C)C1(C)O)C23 (stereo not given)
GI50 [1]: > 100 µM (inactive)
GI50 [2]: > 100 µM (inactive)
GI50 [3]: > 100 µM (inactive)
GI50 [4]: > 100 µM (inactive)
GI50 [55]: > 100 µM (inactive)
GI50 [5]: > 100 µM (inactive)
GI50 [6]: > 100 µM (inactive)
GI50 [7]: > 100 µM (inactive)
GI50 [8]: > 100 µM (inactive)
GI50 [9]: > 100 µM
GI50 [10]: > 100 µM (inactive)
GI50 [11]: > 100 µM (inactive)
GI50 [57]: > 100 µM (inactive)
GI50 [12]: > 100 µM (inactive)
GI50 [14]: > 100 µM (inactive)
GI50 [58]: > 100 µM (inactive)
GI50 [15]: > 100 µM (inactive)
GI50 [16]: > 100 µM (inactive)
GI50 [17]: > 100 µM (inactive)
GI50 [19]: > 100 µM (inactive)
GI50 [20]: > 100 µM (inactive)
GI50 [21]: > 100 µM (inactive)
GI50 [22]: > 100 µM (inactive)
GI50 [24]: > 100 µM (inactive)
GI50 [25]: > 100 µM (inactive)
GI50 [26]: > 100 µM (inactive)
GI50 [27]: > 100 µM (inactive)
GI50 [56]: > 100 µM (inactive)
GI50 [28]: > 100 µM (inactive)
GI50 [29]: > 100 µM (inactive)
GI50 [30]: > 100 µM (inactive)
GI50 [31]: > 100 µM (inactive)
GI50 [32]: > 100 µM (inactive)
GI50 [33]: > 100 µM (inactive)
GI50 [34]: > 100 µM (inactive)
GI50 [35]: > 100 µM (inactive)
GI50 [36]: > 100 µM (inactive)
GI50 [37]: > 100 µM (inactive)
GI50 [38]: > 100 µM (inactive)
GI50 [39]: > 100 µM (inactive)
GI50 [40]: > 100 µM (inactive)
GI50 [41]: > 100 µM (inactive)
GI50 [42]: > 100 µM (inactive)
GI50 [43]: > 100 µM (inactive)
GI50 [44]: > 100 µM (inactive)
GI50 [45]: > 100 µM (inactive)
GI50 [46]: > 100 µM (inactive)
GI50 [47]: > 100 µM (inactive)
GI50 [48]: > 100 µM (inactive)
GI50 [49]: > 100 µM (inactive)
GI50 [50]: > 100 µM (inactive)
GI50 [51]: > 100 µM (inactive)
GI50 [52]: > 100 µM (inactive)
GI50 [53]: > 100 µM (inactive)
GI50 [54]: > 100 µM (inactive)
